Reference: patent US9518038B2, “Condensation product of theanine derivative and carboxylic acid coumarin derivative, its intermediate, preparation method and use thereof” (SHANDONG YINGDONG YINGHAO BIOTECHNOLOGY, INC., priority 2012, dated 2016)
Where two headings read alike, the source gives them in different places.

Legend:
[1] = tested on: human lymphoma cells U937; test: MTT growth inhibition, U937 cells; format: cell-based; conditions: read-out: Drug concentration (IC50) at which 50% cancer cells survived
Experimental: (§1) The procedure was as follows:
(§2) (3) The 96-well plate was taken out at 48 h and 72 h after dosing, the original culture medium was carefully removed by suction, 100 μl of serum-free DMEM culture medium and 10 μl of MTT (5 mg/mL) solution were added in each well. The plate was continuously cultured for another 4 h and then the culture was terminated;
(§3) (4) The supernatant in the wells was carefully removed by suction, each well was added with 150 μl of DMSO and shaked at room temperature for 10-15 min to fully dissolve crystals.
(§4) (5) Colorimetric analysis: the wavelength was selected as 570 nm, the light absorbance (A value) of each well was determined on the microplate reader and the results were recorded; the experiment was repeated for three times;
(§5) (6) the experimental results were calculated according to the following formula: relative survival rate=(A value of each experimental group/A value of cell control group)×100%
(§6) IC50 of the detected component was calculated by using a regression equation.

[2] = tested on: human cervical cancer cells Hela xenograft; test: In-vivo growth of Hela xenografts in nude mice; set-up: species or system BALB/c nude mice; conditions: positive controls: cisplatin 1.5 mg/kg/day, endostar 8 mg/kg
Experimental: (§7) RPMI1640 and DMEM culture solutions: Hyclone Company; inactivated fetal bovine serum: Hyclone Company, preserved at −20° C.; trypsin: Amersco Company; and 0.4% trypan blue: Sigma Company;
(§8) (3) Observation of growth of tumors in nude mice: the activities (including food intake, traits of urine and stool, mental state and the like) of the nude mice and the tumor growth time and growth situation of the transplanted tumors were observed every day, the body weight and the size of the tumors were measured once every 2-3 days. The long diameter a and the short diameter b (mm) of each tumor were measured by a vernier caliper to calculate the volume, wherein the volume V=π1/2·ab^2 (mm^3);
(§9) (4) sacrifice of animals: the mice were anesthetized and photoed after treatment experiments; the nude mice were sacrificed by breaking neck, the tumor tissues were stripped under sterile conditions and the weight of the tumors was weighed; and the effects of the drugs on pathology and toxicity of the various organs and tissues were detected.

mouse melanoma cells B16 = test: MTT growth inhibition, B16 cells; format: cell-based; conditions: 72 h after treatment, read-out: Drug concentration (IC50) at which 50% cancer cells survived
Excerpt: (§10) Cell lines and cell culture: human lung cancer cells A549 and H460, human breast cancer cells MCF-7 and MDA-MB-231, human gastric cancer cells BGC-823, human prostate cancer cells PC-3, human chronic leukemia cells K562, human lymphoma cells U937, human liver cancer cells SMMC7721 and HepG2, human colon cancer cells HT29, human pancreatic cancer cells PANC-1 and BxPC3, human cervical cancer Hela cell lines, human brain tumor cells Daoy, human neuroma cells D54 and human oral epidermoid cancer cells KBV200 line with strong drug resistance, mouse melanoma cells B16, and highly metastatic Lewis lung cancer cell lines were purchased from American Type Culture Collection of the U.S. These cells were cultured with DMEM and RPMI-1640 culture solutions separately.
as §1
(§11) (1) 0.25% trypsin was used to digest cancer cells in a logarithmic growth phase to prepare a single-cell suspension, the concentration of cells was adjusted to 5×10^4/mL, and the adjusted suspension was inoculated into a 96-well culture plate with 100 μl per well;
(§12) (2) The culture plate was transferred into a 37° C. incubator with a saturated humidity and 5% of CO2 and cultured for 24 h; the compounds and the intermediates thereof obtained in embodiments 1-7 and the compound as represented by formula (IIIa) or the positive control anti-cancer drug with the concentration of 1-1000 μM/L were added to enable the final concentration to be 0.1-1500 μM/L. Control wells (only added with 200 μl of cell suspension) and drug-free blank control wells (containing the solvent of 0.01% DMSO) were set, each group included 8 wells, and the plate was placed into the 37° C. incubator with saturated humidity and 5% of CO2 for culturing;
as §2, §3, §4, §5
(§13) Calculation of median-effect concentration (IC50, namely the drug concentration at which the inhibition rate is 50%, also known as half inhibitory concentration):
as §6

[3] = tested on: human liver cancer cells SMMC7721 xenograft; test: In-vivo growth of SMMC7721 xenografts in nude mice; set-up: species or system BALB/c nude mice; conditions: S-7721 xenograft; positive controls: cisplatin 1.5 mg/kg/day, cyclophosphamide 60 mg/kg/2 day, endostar 8 mg/kg
Experimental: as §7, §8, §9

human neuroma cells D54 = test: MTT growth inhibition, D54 cells; format: cell-based; conditions: 72 h after treatment, read-out: Drug concentration (IC50) at which 50% cancer cells survived
Excerpt: as §10, §1, §11, §12, §2, §3, §4, §5, §13, §6

[4] = tested on: human cervical cancer Hela cell lines; test: MTT growth inhibition, Hela cells; format: cell-based; conditions: 72 h after treatment, read-out: Drug concentration (IC50) at which 50% cancer cells survived
Excerpt: as §10, §1, §11, §12, §2, §3, §4, §5, §13, §6

[5] = tested on: human pancreatic cancer cells PANC-1 xenograft; test: In-vivo growth of PANC-1 xenografts in nude mice; set-up: species or system BALB/c nude mice; conditions: positive controls: cisplatin 1.5 mg/kg/day, endostar 8 mg/kg
Experimental: as §7, §8, §9

[6] = tested on: human breast cancer cells MCF-7 xenograft; test: In-vivo growth of MCF-7 xenografts in nude mice; set-up: species or system BALB/c nude mice; conditions: positive controls: cisplatin 1.5 mg/kg/day, cyclophosphamide 60 mg/kg/2 day, endostar 8 mg/kg
Experimental: as §7, §8, §9

[7] = tested on: human breast cancer cells MDA-MB231 xenograft; test: In-vivo growth of MDA-MB231 xenografts in nude mice; set-up: species or system BALB/c nude mice; conditions: MB-231 xenograft; positive controls: cisplatin 1.5 mg/kg/day, cyclophosphamide 60 mg/kg/2 day, endostar 8 mg/kg
Experimental: as §7, §8, §9

[8] = tested on: human brain tumor cells Daoy; test: MTT growth inhibition, Daoy cells; format: cell-based; conditions: 72 h after treatment, read-out: Drug concentration (IC50) at which 50% cancer cells survived
Excerpt: as §10, §1, §11, §12, §2, §3, §4, §5, §13, §6

[9] = tested on: human lung cancer cells A549 xenograft; test: In-vivo growth of A549 xenografts in nude mice; set-up: species or system BALB/c nude mice; conditions: positive controls: cisplatin 1.5 mg/kg/day, cyclophosphamide 60 mg/kg/2 day, endostar 8 mg/kg
Experimental: as §7, §8, §9

[10] = tested on: human breast cancer cells MCF-7; test: MTT growth inhibition, MCF-7 cells; format: cell-based; conditions: MCF7, 72 h after treatment, read-out: Drug concentration (IC50) at which 50% cancer cells survived
Excerpt: as §10, §1, §11, §12, §2, §3, §4, §5, §13, §6

[11] = tested on: human liver cancer cells HepG2; test: MTT growth inhibition, HepG2 cells; format: cell-based; conditions: 72 h after treatment, read-out: Drug concentration (IC50) at which 50% cancer cells survived
Excerpt: as §10, §1, §11, §12, §2, §3, §4, §5, §13, §6

[12] = tested on: human pancreatic cancer cells PANC-1; test: MTT growth inhibition, PANC-1 cells; format: cell-based; conditions: 72 h after treatment, read-out: Drug concentration (IC50) at which 50% cancer cells survived
Excerpt: as §10, §1, §11, §12, §2, §3, §4, §5, §13, §6

[13] = tested on: human lung cancer cells H460; test: MTT growth inhibition, H460 cells; format: cell-based; conditions: NCI-H460, 72 h after treatment, read-out: Drug concentration (IC50) at which 50% cancer cells survived
Excerpt: as §10, §1, §11, §12, §2, §3, §4, §5, §13, §6

[14] = tested on: highly metastatic Lewis lung cancer cell lines; test: MTT growth inhibition, LLC cells; format: cell-based, mouse; conditions: Mus musculus, Lewis lung carcinoma, 72 h after treatment, read-out: Drug concentration (IC50) at which 50% cancer cells survived
Excerpt: as §10, §1, §11, §12, §2, §3, §4, §5, §13, §6

[15] = tested on: human colon cancer cells HT29; test: MTT growth inhibition, HT29 cells; format: cell-based; conditions: HT-29, 72 h after treatment, read-out: Drug concentration (IC50) at which 50% cancer cells survived
Excerpt: as §10, §1, §11, §12, §2, §3, §4, §5, §13, §6

[16] = tested on: human prostate cancer cells PC-3; test: MTT growth inhibition, PC-3 cells; format: cell-based; conditions: 72 h after treatment, read-out: Drug concentration (IC50) at which 50% cancer cells survived
Excerpt: as §10, §1, §11, §12, §2, §3, §4, §5, §13, §6

[17] = tested on: human lung cancer cells A549; test: MTT growth inhibition, A549 cells; format: cell-based; conditions: 72 h after treatment, read-out: Drug concentration (IC50) at which 50% cancer cells survived
Excerpt: as §10, §1, §11, §12, §2, §3, §4, §5, §13, §6

[18] = tested on: human oral epidermoid cancer cells KBV200; test: MTT growth inhibition, KBV200 cells; format: cell-based; conditions: 72 h after treatment, read-out: Drug concentration (IC50) at which 50% cancer cells survived
Excerpt: as §10, §1, §11, §12, §2, §3, §4, §5, §13, §6

[19] = tested on: human pancreatic cancer cells BxPC3; test: MTT growth inhibition, BxPc3 cells; format: cell-based; conditions: Homo sapiens, BXPC-3, 72 h after treatment, read-out: Drug concentration (IC50) at which 50% cancer cells survived
Excerpt: as §10, §1, §11, §12, §2, §3, §4, §5, §13, §6

[20] = tested on: human liver cancer cells SMMC7721; test: MTT growth inhibition, SMMC7721 cells; format: cell-based; conditions: SMMC-7721, S-7721 (SMMC7721), 72 h after treatment, read-out: Drug concentration (IC50) at which 50% cancer cells survived
Excerpt: as §10, §1, §11, §12, §2, §3, §4, §5, §13, §6

[21] = tested on: human gastric cancer cells BGC-823; test: MTT growth inhibition, BGC-823 cells; format: cell-based; conditions: 72 h after treatment, read-out: Drug concentration (IC50) at which 50% cancer cells survived
Excerpt: as §10, §1, §11, §12, §2, §3, §4, §5, §13, §6

[22] = tested on: human chronic leukemia cells K562; test: MTT growth inhibition, K562 cells; format: cell-based; conditions: 72 h after treatment, read-out: Drug concentration (IC50) at which 50% cancer cells survived
Excerpt: as §10, §1, §11, §12, §2, §3, §4, §5, §13, §6

[23] = tested on: human breast cancer cells MDA-MB-231; test: MTT growth inhibition, MDA-MB-231 cells; format: cell-based; conditions: 72 h after treatment, read-out: Drug concentration (IC50) at which 50% cancer cells survived
Excerpt: as §10, §1, §11, §12, §2, §3, §4, §5, §13, §6

[24] = tested on: Caski human cervical cancer cells; test: MTT growth inhibition, Caski cells; format: cell-based; conditions: Ca-Ski, 72 h after treatment, read-out: Drug concentration (IC50) at which 50% cancer cells survived
[25] = Homo sapiens, U-937, 72 h after treatment

Compound	IC50 [10]	IC50 [12]	IC50 [13]	IC50 [14]	IC50 [15]	IC50 [16]	IC50 [17]	IC50 (mouse melanoma cells B16; Mus musculus)	IC50 ([4]; Homo sapiens)	IC50 [20]	IC50 [21]	IC50 [22]	IC50 [1, 25]	IC50 [23]	also measured
N.N.O=C([O-])C1(C(=O)[O-])CCC1.[Pt+2] [Carboplatin, reference compound]															IC50 ([1]; 72 h after treatment): 58 ± 30 µM
N.N.[Cl][Pt][Cl] [Cisplatin, reference compound]															Curative effect (inhibition rate %) of tumor weight [2]: A.36.6% ± 7.5; IC50 (mouse melanoma cells B16): 67 ± 30 µM; Curative effect (inhibition rate %) of tumor weight [3]: A.69.6% ± 7.9;; IC50 (human neuroma cells D54): 21 µM; IC50 [4]: 66 µM; Curative effect (inhibition rate %) of tumor weight [5]: A/25.3% ± 7.7; Curative effect (inhibition rate %) of tumor weight [6]: A.39.9% ± 7.8;; Curative effect (inhibition rate %) of tumor weight [7]: A/61.3% ± 6.7*;; IC50 [8]: 1.6 µM; Curative effect (inhibition rate %) of tumor weight [9]: A/46.7% ± 6.5*;
O=C(O)c1cc2ccccc2oc1=O [Compound IIIa]	> 700 µM	> 700 µM	> 700 µM	> 700 µM	> 700 µM	> 500 µM	> 700 µM	> 700 µM	> 700 µM	> 500 µM	> 700 µM	> 700 µM	> 700 µM	> 700 µM	IC50 [11]: > 700 µM; IC50 [18]: > 700 µM; IC50 [19]: > 700 µM; IC50 (human neuroma cells D54; Homo sapiens): > 700 µM; IC50 ([8]; Homo sapiens): > 700 µM; IC50 [24]: > 700 µM
O=C(O)c1cc2cc(Br)ccc2oc1=O [Compound IIId, 6-bromocoumarin-3-carboxylic acid]	400 µM	500 µM	500 µM	400 µM	700 µM	500 µM	600 µM	600 µM	600 µM	500 µM	700 ± 50 µM	600 µM	500 µM	500 µM	
